Measurements: article PMC9431551, “Isolation of the Thermostable β-Glucosidase-Secreting Strain Bacillus altitudinis JYY-02 and Its Application in the Production of Gardenia Blue” (Microbiology Spectrum, 2022)

System: T1, recombinant β-glucosidase of B. altitudinis JYY-02 (bgl)
T1 construct: full-length ORF 1,467 bp, 488 residues, N-terminus MTTIKG from forward primer; E. coli BL21(DE3); 54 kDa
Test: p-nitrophenol release at […] nm, Lineweaver-Burk plot
Assay type: biochemical, Bacillus altitudinis
Conditions: citrate-disodium hydrogen phosphate buffer 0.2 M, pH 5.6, 55°C (standard assay); abstract prints 0.331 mM

Km: 332 µM
SMILES: O=[N+]([O-])c1ccc(O[C@@H]2O[C@H](CO)[C@@H](O)[C@H](O)[C@H]2O)cc1 [p-nitrophenyl-β-D-glucopyranoside]
